In patent publication US20220389057A1, “ENDOCYTOSIS ROUTING SEQUENCE PEPTIDE FOR CELL DELIVERY SYSTEMS” (SZEGEDI TUDOMÁNYEGYETEM, priority 2019, published 2022):
Read-outs that look alike come from different tables or passages of the source.

Experiment: Isothermal titration calorimetry (ITC), binding to ganglioside GM1
Conditions: Table 1, pH 7.2, 35° C.
Method: Isothermal calorimetric titrations (ITC) were performed with a MicroCal VP-ITC microcalorimeter in pH 7.2 phosphate buffer solution. In individual titrations, 15 μL GM1:DPC 1:5 containing solution was injected from the computer-controlled […] microsyringe at intervals of 300 s into the ligand solution, dissolved in the same buffer as the GM1. All measurements were carried out at 35° C. The ligands concentration in the cell was 15 μM, and the concentration of GM1 in the syringe was 300 μM. Control experiments were performed by injecting GM1 into the cell containing buffer but no ligands Experiments were repeated twice. The experimental data were fitted to the one binding site or two independent sites model (adjustable parameters: ΔHb1, Kd1, n1 and ΔHb2, Kd2, n2) using a nonlinear least-squares procedure. Errors were calculated by jackknife resampling.
Binding of Trp-Tyr-Lys-Tyr-Trp (WYKYW) and analogues to various ganglioside derivatives was tested as described under “Isothermal Titration calorimetry” to explore the specificity of the interaction between WYKYW and GM1. Affinity data for binding between WYKYW and various ganglioside derivatives (FIG. 1), and for binding between various mutated sequences of WYKYW and GM1 (Table 1) were obtained by Isothermal Titration calorimetry as described in Example 1 (General methods).

[1] = first binding step, read-out: KD1/nM
[2] = second binding step, read-out: KD2/nM

Row | Compound | Kd [1] [nM] | KD1/nM (first binding step) | Kd [2] [nM]
1 | NCCCC[C@H](NC(=O)[C@H](Cc1ccc(O)cc1)NC(=O)[C@@H](N)Cc1c[nH]c2ccccc12)C(=O)N[C@@H](Cc1ccc(O)cc1)C(=O)N[C@H](Cc1c[nH]c2ccccc12)C(N)=O [WYKYw] | 3930 | – | –
2 | NCCCC[C@H](NC(=O)[C@H](Cc1ccc(O)cc1)NC(=O)[C@@H](N)Cc1c[nH]c2ccccc12)C(=O)N[C@H](Cc1ccc(O)cc1)C(=O)N[C@@H](Cc1c[nH]c2ccccc12)C(N)=O [WYKyW] | 3240 | – | –
3 | NCCCC[C@@H](NC(=O)[C@H](Cc1ccc(O)cc1)NC(=O)[C@@H](N)Cc1c[nH]c2ccccc12)C(=O)N[C@@H](Cc1ccc(O)cc1)C(=O)N[C@@H](Cc1c[nH]c2ccccc12)C(N)=O [WYkYW] | 4520 | – | –
4 | NCCCC[C@H](NC(=O)[C@@H](Cc1ccc(O)cc1)NC(=O)[C@@H](N)Cc1c[nH]c2ccccc12)C(=O)N[C@@H](Cc1ccc(O)cc1)C(=O)N[C@@H](Cc1c[nH]c2ccccc12)C(N)=O [WyKYW] | 892 | – | –
5 | NCCCC[C@H](NC(=O)[C@H](Cc1ccc(O)cc1)NC(=O)[C@H](N)Cc1c[nH]c2ccccc12)C(=O)N[C@@H](Cc1ccc(O)cc1)C(=O)N[C@@H](Cc1c[nH]c2ccccc12)C(N)=O [wYKYW] | 881 | – | –
6 | AYKYW [Ala point mutation of WYKYW] | – | not fittable | –
7 | Trp-Tyr-Lys-β^3-homo-Tyr-Trp [WYKbYW] | 40 | – | 1200
8 | Trp-β^3-homo-Tyr-Lys-Tyr-Trp [WbYKYW] | 60 | – | 1000
9 | WAKYW [Ala point mutation of WYKYW] | 5760 | – | –
10 | WYAYW [Ala point mutation of WYKYW] | 10500 | – | –
11 | WYKAW [Ala point mutation of WYKYW] | 1690 | – | –
12 | WYKYA [Ala point mutation of WYKYW] | 1060 | – | –
13 | β^3-homo-Trp-Tyr-Lys-Tyr-Trp [bWYKYW] | 4.3 | – | 2100
